Measured values taken from patent publication US8492559B2, “Substituted indole compounds” (Gruenenthal GmbH, priority 2009, dated 2013).

Target: T1, B1R receptor of the rat (rB1R) (Rattus norvegicus, UniProt P97583)
T1 construct: expressed in transfected cells; host or cells: CHO K1 cells
T1 sequence (P97583 1-337): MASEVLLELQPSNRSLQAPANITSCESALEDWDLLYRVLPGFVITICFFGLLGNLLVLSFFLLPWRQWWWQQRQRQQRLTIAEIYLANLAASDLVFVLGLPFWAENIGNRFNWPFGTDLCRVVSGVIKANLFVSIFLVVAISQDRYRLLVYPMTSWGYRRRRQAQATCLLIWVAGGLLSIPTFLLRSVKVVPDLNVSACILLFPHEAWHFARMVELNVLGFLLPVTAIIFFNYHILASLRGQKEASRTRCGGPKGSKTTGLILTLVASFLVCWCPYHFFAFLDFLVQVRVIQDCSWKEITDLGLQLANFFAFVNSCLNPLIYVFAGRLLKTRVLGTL
Test: Functional investigation on the bradykinin 1 receptor (B1R), FLIPR Ca2+ assay, rB1R cells
Assay type: cell-based
Details: 10 μM test substance; CHO K1 cells with rat B1R; agonist Des-Arg9 bradykinin; % of maximum achievable inhibition; 10 µM
How it was run: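 Cells plated at 20,000-35,000/well, incubated overnight at 37° C, loaded with Fluo-4 (2.13 μM, 60 min, 37° C, or 2.5 μM in buffer A), then read in FLIPR (λex 488, λem 540 nm). Agonist: Lys-Des-[MUT] bradykinin (0.5 nM) or Des-[MUT] bradykinin (100 nM). IC50 from % inhibition versus maximum, n=2-3, N>=2.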

B1R antagonism, rat [10 μM] % inhibition [%]	Compound
96	COc1cc(C)c(S(=O)(=O)Nc2cccc3ccn(CC(=O)N4CCC5(CC4)CCN(c4ccncc4)CC5)c23)c(C)c1 [Compound G-05, 4-Methoxy-2,6-dimethyl-N-[1-[2-oxo-2-(9-pyridin-4-yl-3,9-diazaspiro[5.5]undecan-3-yl)-ethyl]-1H-indol-7-yl]-benzenesulfonic acid amide]

Same assay, conditions: CHO-K1, 10 μM test substance; CHO K1 cells with rat B1R; agonist Des-Arg9 bradykinin; % of maximum achievable inhibition; read-out: B1R antagonism, rat [10 μM] % inhibition

inhibition at 10 µM [%]	Compound
99	COc1cc(C)c(S(=O)(=O)Nc2cccc3ccn(CC(=O)N4CCC5(CCC(N6CCC6)CC5)CC4)c23)c(C)c1 [Compound G-18, N-(1-(2-(9-(azetidin-1-yl)-3-azaspiro[5.5]undecan-3-yl)-2-oxoethyl)-1H-indol-7-yl)-4-methoxy-2,6-dimethylbenzenesulfonic acid amide]
70	COc1cc(C)c(S(=O)(=O)Nc2ccc3ccn(CC(=O)N4CCC(N5CCN(C)CC5)CC4)c3c2)c(C)c1 [G_CC-2, 4-Methoxy-2,6-dimethyl-N-[1-[2-[4-(4-methyl-piperazin-1-yl)-piperidin-1-yl]-2-oxo-ethyl]-1H-indol-6-yl]-benzenesulfonic acid amide]
101	COc1cc(C)c(S(=O)(=O)Nc2cccc3ccn(CC(=O)N(C)CCCN4CCN(c5ccncc5)CC4)c23)c(C)c1 [G_CC-88, 2-[7-[[(4-Methoxy-2,6-dimethyl-phenyl)sulfonyl]amino]-1H-indol-1-yl]-N-methyl-N-[3-(4-pyridin-4-yl-piperazin-1-yl)-propyl]-acetamide]
104	COc1cc(C)c(S(=O)(=O)Nc2ccc3ccn(CC(=O)N(C)CCCN4CCN(c5ccncc5)CC4)c3c2)c(C)c1 [G_CC-76, 2-[6-[[(4-Methoxy-2,6-dimethyl-phenyl)sulfonyl]amino]-1H-indol-1-yl]-N-methyl-N-[3-(4-pyridin-4-yl-piperazin-1-yl)-propyl]-acetamide]
96	COc1cc(C)c(S(=O)(=O)Nc2cccc3ccn(CC(=O)N4CCC5(CCN(c6ccncc6)CC5)C4)c23)c(C)c1 [Compound G-14, 4-Methoxy-2,6-dimethyl-N-(1-(2-oxo-2-(8-(pyridin-4-yl)-2,8-diazaspiro[4.5]decan-2-yl)ethyl)-1H-indol-7-yl)benzenesulfonic acid amide]
96	COc1cc(C)c(S(=O)(=O)Nc2cccc3ccn(CCC(=O)N4CCC5(CC4)CCN(c4ccncc4)CC5)c23)c(C)c1 [G_CC-54, 4-Methoxy-2,6-dimethyl-N-[1-[3-oxo-3-(3-pyridin-4-yl-3,9-diazaspiro[5.5]undecan-9-yl)-propyl]-1H-indol-7-yl]-benzenesulfonic acid amide]
102	Cc1cccc2c1C(=O)N(c1ccc3ccn(CC(=O)N4CCC5(CC4)CCN(c4ccncc4)CC5)c3c1)C2 [Compound G-26, 7-Methyl-2-[1-[2-oxo-2-(9-pyridin-4-yl-3,9-diazaspiro[5.5]undecan-3-yl)-ethyl]-1H-indol-6-yl]-2,3-dihydro-isoindol-1-one]
70	COc1cc(C)c(S(=O)(=O)Nc2cccc3ccn(CC(=O)N4CCC(OCCN5CCCC5)(c5cccnc5)CC4)c23)c(C)c1 [Compound G-06, 4-Methoxy-2,6-dimethyl-N-[1-[2-oxo-2-[4-pyridin-3-yl-4-(2-pyrrolidin-1-yl-ethoxy)-piperidin-1-yl]-ethyl]-1H-indol-7-yl]-benzenesulfonic acid amide]
13	O=C(Cn1ccc2ccc(N3Cc4cccc(Cl)c4C3=O)cc21)N1CCC2(CCC(N3CC(F)(F)C3)CC2)CC1 [Compound G-20, 7-Chloro-2-(1-(2-(9-(3,3-difluoroazetidin-1-yl)-3-azaspiro[5.5]undecan-3-yl)-2-oxoethyl)-1H-indol-6-yl)isoindolin-1-one]
97	O=C(Cn1ccc2ccc(N3Cc4cccc(Cl)c4C3=O)cc21)N1CCC2(CC1)CCN(c1ccncc1)CC2 [Compound G-08, 7-Chloro-2-[1-[2-oxo-2-(9-pyridin-4-yl-3,9-diazaspiro[5.5]undecan-3-yl)-ethyl]-1H-indol-6-yl]-2,3-dihydro-isoindol-1-one]
100	COc1cc(C)c(S(=O)(=O)Nc2cccc3ccn(CC(=O)N4CCC5(CC4)CCN(c4ccncc4)CC5)c23)c(C)c1 [G_CC-91, 4-Methoxy-2,6-dimethyl-N-[1-[2-oxo-2-(3-pyridin-4-yl-3,9-diazaspiro-[5.5]undecan-9-yl)-ethyl]-1H-indol-7-yl]-benzenesulfonic acid amide]
